Data from patent publication US10947237B2, “Antimicrobial compounds and methods of making and using the same” (BIOVERSYS AG, priority 2015, dated 2021).

How the values were obtained:
[1] = test system: Eschericia coli (E. Coli) strain ATCC25922; experiment: standard microdilution assay, minimum inhibitory concentration (MIC); type: cell-based; settings: Escherichia coli
Method in brief: (§1)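 Compounds were scored +/− against a 16 µg/mL MIC cutoff, using CLSI-based microdilution with QC reference strains. The organisms were S. aureus 11540 and E. coli ATCC25922.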

[2] = test system: Staphylococcus aureus (S. aureus) 11540 strain; experiment: as above; type: cell-based
Method in brief: as §1

SMILES | MIC ([1]; Table 2, strain ATCC25922) [µg/mL] | MIC ([2]; Table 2, 11540 strain) [µg/mL] | MIC ([1]; ATCC25922, Table 2a) [µg/mL] | MIC ([2]; Table 2a) [µg/mL]
CC1=NC[C@@H](CCNC(=N)N)N1Cc1ccc(-n2cc3cc(-c4cc(CCC[C@H](C)N)cc(Cl)c4F)[nH]c3nc2=O)cc1 [Compound 77] | ≤ 16 | ≤ 16 | – | –
N=C(N)NCC[C@@H]1CN(c2ccc(-n3cc4cc(CCNC5CCNCC5)[nH]c4nc3=O)cc2)CCO1 [Compound 146] | > 16 | > 16 | – | –
Cc1nc(NCC[C@H]2CCC[C@H](c3ccc(-n4cc5cc(-c6cc(CCC[C@H](C)N)cc(OC(F)(F)F)c6F)[nH]c5nc4=O)cc3)N2)[nH]c1C [Compound 53] | ≤ 16 | ≤ 16 | – | –
C[C@H](N)CCCc1cc(Cl)c(F)c(-c2cc3cn(-c4ccc(CN[C@H](CCNC(=N)N)CNc5cc(=O)cc[nH]5)cc4)c(=O)nc3[nH]2)c1 [Compound 46] | ≤ 16 | ≤ 16 | – | –
C=C[C@@H](CCNC(=N)N)NCc1ccc(-n2cc3cc(-c4cc([C@@H]5CC[C@@H](CN)O5)cc(Cl)c4F)[nH]c3nc2=O)cc1 [Compound 141] | ≤ 16 | ≤ 16 | – | –
C=C[C@@H](CCNC(=N)N)NCc1ccc(-n2cc3cc(-c4cc([C@@H]5CC[C@H](CN)O5)cc(Cl)c4F)[nH]c3nc2=O)cc1 [Compound 142] | ≤ 16 | ≤ 16 | – | –
CC(=N)NCC[C@H](CO)OCc1ccc(-n2cc3cc(-c4cc(CCC[C@H](C)N)cc(Cl)c4F)[nH]c3nc2=O)cc1 [Compound 72] | ≤ 16 | ≤ 16 | – | –
C[C@H](N)CCCc1cc(Cl)c(F)c(-c2cc3cn(-c4ccc(N5CCOC(CCNC(=N)N)C5)cc4)c(=O)nc3[nH]2)c1 (some centres unmarked) [Compound 92] | ≤ 16 | ≤ 16 | – | –
Cc1nc(NCC[C@@H]2CCC[C@@H](c3ccc(-n4cc5cc(-c6cc(CCC[C@H](C)N)cc(OC(F)(F)F)c6F)[nH]c5nc4=O)cc3)N2)[nH]c1C [Compound 42] | ≤ 16 | ≤ 16 | – | –
N=C(N)NCC[C@H]1CC(N)C[C@H](c2ccc(-n3cc4cc(CCNC5CCNCC5)[nH]c4nc3=O)cc2)O1 (some centres unmarked) [Compound 122] | ≤ 16 | ≤ 16 | – | –
C[C@H](N)CCCc1cc(Cl)c(F)c(-c2cc3cn(-c4ccc([C@@H]5CCC[C@@H](CNCc6cc[nH]c(=O)c6)N5)cc4)c(=O)nc3[nH]2)c1 [Compound 16] | ≤ 16 | ≤ 16 | – | –
C=C[C@@H](CCNC(=N)N)NCc1ccc(-n2cc3cc(-c4cc([C@H]5CC[C@@H](CN)O5)cc(Cl)c4F)[nH]c3nc2=O)cc1 [Compound 140] | ≤ 16 | ≤ 16 | – | –
Cc1nc(NCC[C@H]2CCC[C@H](c3ccc(-n4cc5cc(-c6cc(CCC[C@H](C)N)cc(Cl)c6F)[nH]c5nc4=O)cc3)N2)[nH]c1C [Compound 41] | ≤ 16 | ≤ 16 | – | –
C[C@H](N)CCCc1cc(Cl)c(F)c(-c2cc3cn(-c4ccc(CN[C@H](CCNC(=N)N)CNc5ccc(=O)[nH]n5)cc4)c(=O)nc3[nH]2)c1 [Compound 40] | ≤ 16 | ≤ 16 | – | –
N=C(N)NCC[C@@H]1CCC[C@@H](c2ccc(-n3cc4cc(C5CCNC5)[nH]c4nc3=O)cc2)N1 (some centres unmarked) [Compound 100] | ≤ 16 | ≤ 16 | – | –
C[C@H](N)CCCc1cc(Cl)c(F)c(-c2cc3cn(-c4ccc([C@@H]5CCC[C@@H](CCN6CCOC6=O)N5)cc4)c(=O)nc3[nH]2)c1 [Compound 20] | > 16 | > 16 | – | –
C[C@H](N)CCCc1cc(Cl)c(F)c(-c2cc3cn(-c4ccc(CO[C@@H](CCNC(=N)N)CNc5nccs5)cc4)c(=O)nc3[nH]2)c1 [Compound 60] | ≤ 16 | ≤ 16 | – | –
C[C@H](N)CCCc1cc(Cl)c(F)c(-c2cc3cn(-c4ccc([C@@H]5CCC[C@@H](CCNC(=N)CF)N5)cc4)c(=O)nc3[nH]2)c1 [Compound 85] | ≤ 16 | ≤ 16 | – | –
C[C@H](N)CCCc1cc(Cl)c(F)c(-c2cc3cn(-c4ccc(CN[C@H](CCNC(=N)N)CNc5cccnc5)cc4)c(=O)nc3[nH]2)c1 [Compound 54] | ≤ 16 | ≤ 16 | – | –
C[C@H](N)CCCc1cc(Cl)c(F)c(-c2cc3cn(-c4ccc([C@H]5CCC[C@H](CCNC6=NCCC6)N5)cc4)c(=O)nc3[nH]2)c1 [Compound 29] | ≤ 16 | ≤ 16 | – | –
CC(=N)NCC[C@@H]1CCC[C@@H](c2ccc(-n3cc4cc(-c5cc(CCC[C@@H](N)CO)cc(Cl)c5F)[nH]c4nc3=O)cc2)N1 [Compound 151] | ≤ 16 | ≤ 16 | – | –
CC1=NCC[C@H]2CCC[C@H](c3ccc(-n4cc5cc(-c6cc(CCC[C@H](C)N)cc(Cl)c6F)[nH]c5nc4=O)cc3)N12 [Compound 2] | ≤ 16 | ≤ 16 | – | –

SMILES | MIC ([1]; Table 2, strain ATCC25922) [µg/mL] | MIC ([2]; Table 2, 11540 strain) [µg/mL] | MIC ([1]; ATCC25922, Table 2a) [µg/mL] | MIC ([2]; Table 2a) [µg/mL]
CC(=N)NC[C@@H](CCNC(=N)N)OCc1ccc(-n2cc3cc(-c4cc(CCC[C@H](C)N)cc(Cl)c4F)[nH]c3nc2=O)cc1 [Compound 168] | – | – | ≤ 16 | ≤ 16
CC(=N)NCC[C@@H]1CCC[C@@H](c2ccc(-n3cc4cc(CCNC5CCNCC5)[nH]c4nc3=O)cc2)N1 [Compound 117] | ≤ 16 | ≤ 16 | – | –
C[C@H](N)CCCc1cc(Cl)c(F)c(-c2cc3cn(-c4ccc([C@@H]5CCC[C@@H](CCNc6nc7ccccc7[nH]6)N5)cc4)c(=O)nc3[nH]2)c1 [Compound 43] | ≤ 16 | ≤ 16 | – | –
C[C@H](NCCCNC(=N)N)c1ccc(-n2cc3cc(-c4cc([C@@H]5CC[C@@H](CN)O5)cc(Cl)c4F)[nH]c3nc2=O)cc1 [Compound 148] | ≤ 16 | ≤ 16 | – | –
C[C@H](N)CCCc1cc(Cl)c(F)c(-c2cc3cn(-c4ccc([C@H]5CCC[C@H](CCNc6nc7ccccc7[nH]6)N5)cc4)c(=O)nc3[nH]2)c1 [Compound 44] | ≤ 16 | ≤ 16 | – | –
C[C@H](N)CCCc1cc(Cl)c(F)c(-c2cc3cn(-c4ccc(CO[C@H](CCNS(C)(=O)=O)CNC(=N)N)cc4)c(=O)nc3[nH]2)c1 [Compound 167] | – | – | ≤ 16 | ≤ 16
C[C@H](N)CCCc1cc(Cl)c(F)c(-c2cc3cn(-c4ccc(CN[C@H](CCNC(=N)N)CNc5ccc[nH]c5=O)cc4)c(=O)nc3[nH]2)c1 [Compound 62] | ≤ 16 | ≤ 16 | – | –
C[C@H](N)CCCc1cc(Cl)c(F)c(-c2cc3cn(-c4ccc([C@@H]5CCC[C@@H](CCNC(=N)N)C5)cc4)c(=O)nc3[nH]2)c1 [Compound 34] | ≤ 16 | ≤ 16 | – | –
C[C@H](N)CCCc1cc(Cl)c(F)c(-c2cc3cn(-c4ccc(CO[C@H](CO)CCNC(=N)N)cc4)c(=O)nc3[nH]2)c1 [Compound 59] | ≤ 16 | ≤ 16 | – | –
C=C[C@@H](CCNC(=N)N)NCc1ccc(-n2cc3cc(-c4cc([C@H]5CC[C@H](CN)O5)cc(Cl)c4F)[nH]c3nc2=O)cc1 [Compound 139] | ≤ 16 | ≤ 16 | – | –
CC(=N)NCC[C@H]1CC(NC(C)=N)C[C@H](c2ccc(-n3cc4cc(-c5cc(CCC[C@H](C)N)cc(Cl)c5F)[nH]c4nc3=O)cc2)O1 (some centres unmarked) [Compound 137] | ≤ 16 | ≤ 16 | – | –
C[C@H](N)CCCc1cc(Cl)c(F)c(-c2cc3cn(-c4ccc([C@@H]5CC[C@@H](CNC(=N)N)O5)cc4)c(=O)nc3[nH]2)c1 [Compound 69] | ≤ 16 | ≤ 16 | – | –
C[C@H](N)CCCc1cc(Cl)c(F)c(-c2cc3cn(-c4ccc(CO[C@@H](C)CCNC(=N)N)cc4)c(=O)nc3[nH]2)c1 [Compound 66] | ≤ 16 | ≤ 16 | – | –
C[C@H](N)CCCc1cc(Cl)c(F)c(-c2cc3cn(-c4ccc(CN[C@H](CCNC(=N)N)CNc5nnn[nH]5)cc4)c(=O)nc3[nH]2)c1 [Compound 49] | ≤ 16 | ≤ 16 | – | –
C[C@H](N)CCCc1cc(Cl)c(F)c(-c2cc3cn(-c4ccc([C@H]5CC(CCNC(=N)N)CC(CO)O5)cc4)c(=O)nc3[nH]2)c1 (some centres unmarked) [Compound 87] | ≤ 16 | ≤ 16 | – | –
CC(=N)NCC[C@@H](CNC(C)=N)OCc1ccc(-n2cc3cc(-c4cc(CCC[C@H](C)N)cc(Cl)c4F)[nH]c3nc2=O)cc1 [Compound 173] | – | – | ≤ 16 | ≤ 16
C[C@H](N)CCCc1cc(Cl)c(F)c(-c2cc3cn(-c4ccc(CN[C@H](CCNC(=N)N)Cn5ccc(=O)[nH]c5=O)cc4)c(=O)nc3[nH]2)c1 [Compound 7] | ≤ 16 | ≤ 16 | – | –
C[C@H](N)CCCc1cc(-c2[nH]c3nc(=O)n(-c4ccc([C@H](C)NCCCNC(=N)N)cc4)cc3c2[N+](=O)[O-])c(F)c(Cl)c1[N+](=O)[O-] [Compound 110] | > 16 | > 16 | – | –
COC[C@H](N)CCCc1cc(OC(F)(F)F)c(F)c(-c2cc3cn(-c4ccc(CO[C@H](CCNC(=N)N)CNC(=N)N)cc4)c(=O)nc3[nH]2)c1 [Compound 165] | – | – | ≤ 16 | ≤ 16
C[C@H](N)CCCc1cc(Cl)c(F)c(-c2[nH]c3nc(=O)n(-c4ccc(CN[C@H](C)CCNC(=N)N)cc4)cc3c2[N+](=O)[O-])c1 [Compound 109] | > 16 | ≤ 16 | – | –
CC(=N)NCC[C@@H](CNC(=N)N)OCc1ccc(-n2cc3cc(-c4cc(CCC[C@H](C)N)cc(Cl)c4F)[nH]c3nc2=O)cc1 [Compound 172] | – | – | ≤ 16 | ≤ 16
